Results on 2 compounds are retold here after US20190010236A1, “METHODS AND COMPOSITIONS FOR DECTIN-2 STIMULATION AND CANCER IMMUNOTHERAPY” (The Board of Trustees of the Leland Stanford Junior …, priority 2015, published 2019).

Assay [1] concerns PDAC cells. The experiment in a line: High-mannose glycan display on kifunensine-treated tumor cells (concavalin A staining). The conditions noted are these: tumor cells treated with kifunensine for 3 days. In kind it is cell-based. How it is done: (§1) FIG. 5A-5D. Mannosidase inhibition with kifunensine induces high-mannose glycan display and increases tumor cell immunogenicity. (FIG. 5A-5C) PDAC cells were treated with kifunensine for 3 days prior to flow cytometric analysis (FIG. 5A) or coculture with TAM (FIG. 5B, FIG. 5C). (FIG. 5A) PDAC cells stained with the mannose-binding lectin, concavalin A. (FIG. 5B, FIG. 5C) Pretreated PDAC cells were labeled with CSFE and cocultured overnight with TAM to assess cytokine production (FIG. 5B) and tumor cell uptake (FIG. 5C) by Dectin-2-expressing TAM. In some experiments, TAM were treated with Dectin-2-blocking antibodies prior to coculture with PDAC cells (FIG. 5C). *, p<0.05 by Student's t-test. (FIG. 5D) Subcutaneous PDAC tumors from kifunensine-treated mice (i.p., q2d for 7 days) were analyzed by flow cytometry. CD8 T cells (CD8^+CD90^+) among total tumor-infiltrating immune cells are gated.

Assay [2] concerns tumor-associated myeloid cells (TAM cells). The experiment in a line: Coculture of kifunensine-pretreated PDAC cells with TAM (cytokine production, tumor cell uptake). In kind it is cell-based. As to conditions: kifunensine-pretreated PDAC cells cocultured overnight with TAM; Dectin-2-dependent. How it is done: as §1
Assay [3] has as its system subcutaneous PDAC tumors. Put plainly: Kifunensine treatment of mice with subcutaneous PDAC tumors. The conditions noted are these: kifunensine i.p., q2d for 7 days. In kind it is in vivo. How it is done:
as §1

Assay [4] concerns human monocytes. Put plainly: Flow cytometric analysis of Dectin-2 expression after GM-CSF culture. In kind it is cell-based. The conditions noted are these: 24 hr, GM-CSF 50 ng/mL. How it is done:
(§2) FIG. 4A-4D. GM-CSF induces Dectin-2 expression and sensitizes tumors to Dectin-2 stimuli. (FIG. 4A-4C) Murine (FIG. 4A, FIG. 4B) and human (FIG. 4C) monocytes were cultured for 24 hr in media supplemented or not with GM-CSF (50 ng/mL) prior to flow cytometric analysis of Dectin-2 expression (FIG. 4A, FIG. 4C) or stimulation with furfurman and analysis of TNFα production (FIG. 4B). […] (FIG. 4D) Mice bearing s.c. CT26 tumors were treated with mannan (i.v.) and/or GM-CSF (i.t.) starting on day 6 post-tumor implantation.
(§3) (FIG. 4A-4C) Murine (FIG. 4A, FIG. 4B) and human (FIG. 4C) monocytes were cultured for 24 hr in media supplemented or not with GM-CSF (50 ng/mL) prior to flow cytometric analysis of Dectin-2 expression (FIG. 4A, FIG. 4C) or stimulation with furfurman and analysis of GM-CSF production. […] (FIG. 4D) Mice bearing s.c. CT26 tumors were treated with mannan (i.v.) and/or GM-CSF (i.t.) starting on day 6 post-tumor implantation.
A general note: Flow cytometry measures light scatter and fluorescence of single cells or particles in a stream.

For assay [5], the system named is murine monocytes. The assay is described as above. The format is cell-based. As to conditions: 24 hr, GM-CSF 50 ng/mL. As to the method:
as §2, §3

In assay [6] the test system is s.c. CT26 tumors. Put plainly: Mannan (i.v.) and/or GM-CSF (i.t.) in s.c. CT26 tumors. The format is in vivo, mice. As to conditions: GM-CSF i.t. with mannan i.v. As to the method:
as §2, §3

`O=C1N[C@@H]2[C@@H](O)[C@@H](O)[C@H](O)[C@@H](CO)N2C1=O` [kifunensine]: in assay [1], the “high-mannose glycans on the cell surface” value is “sharp increase”. The “TAM activation by treated tumor cells (cytokine production, tumor cell uptake)” value in assay [2] was “inducing proinflammatory cytokine production and tumor cell uptake”. In addition, in assay [3], the “T cell infiltration into tumors” value is “led to T cell infiltration into tumors” and the “high-mannose glycan display by tumor cells in vivo” value is listed as “increased high-mannose glycan display by tumor cells”.
Take “GM-CSF: cytokine that induces Dectin-2 expression by myeloid cells”: the Dectin-2 expression entry in assay [4] and in assay [5] was “induced Dectin-2 expression” in each case. Further, the “sensitization of tumors to Dectin-2 stimuli (tumor volume)” value in assay [6] is on record as “sensitized tumors to Dectin-2 stimuli”.
